Like-named read-outs stand apart in the source and are kept apart here.
Tests used:
PfPKG = conditions: cited from earlier work
[1] = system: P. berghei sporozoites (PbLuc-GFP); assay: In vivo chemoprotective efficacy against sporozoite liver infection; parameters: species or system Plasmodium berghei in mice
[2] = Cellular cytotoxicity, hepatocyte nuclear counts; assay type: cell-based, human; conditions: human, primary cryopreserved human hepatocytes (lot BGW); cellular cytotoxicity
Text: (§1) Primary cryopreserved hepatocytes were selected based on host-parasite compatibility: primary simian hepatocytes (lot OQB) for P. cynomolgi and human hepatocytes (lot BGW) for P. falciparum (BioIVT Inc., Baltimore, MD, USA). Cells were thawed according to the manufacturer’s protocol and seeded into 384-well collagen-coated assay plates (Greiner Bio-One, Monroe, NC, USA) using InVitroGro CP plating medium (BioIVT). Seeding densities were optimized for uniform monolayer formation, and hepatocytes were allowed to adhere for 24–48 hours before infection. Sporozoites were added at a 1:1.1 hepatocyte-to-sporozoite ratio within 48 hours post-seeding. Automated robotic systems were used for media changes and compound additions to ensure assay consistency and minimize variability associated with manual pipetting.
(§2) Test compounds (PfPKG inhibitors) and assay drug controls (KDU-691 and tafenoquine) were solubilized in DMSO or PBS and serially diluted into 8- or 12-point, 2- or 3-fold series, achieving final assay concentrations ranging from 20 µM to 0.019 µM. […]
(§3) High-content imaging was performed using the Operetta CLS system (Revvity) and image analysis was performed with Harmony software version 4.9 (Revvity, Waltham, MA, USA). Images were acquired at 10x or 20x magnification using DAPI and TRITC fluorescence channels. Following the established protocol, parasites were classified as hypnozoites or schizonts based on fluorescence intensity (mean and maximum), morphological features (cell roundness and size), and segmentation criteria. […] Hepatocyte viability was determined by quantifying nuclear counts per well using Hoechst stain intensity thresholds. […] An in-house built Python-based image analysis script identified parasite objects using predefined fluorescence intensity thresholds. […] Parasite size was quantified by calculating the average object area (µm²) of validated parasite structures per well. […] Dose-response inhibition and IC50 were calculated relative to in-plate negative controls (DMSO-treated wells). […]

[3] = system: primary human hepatocytes; assay: Cellular cytotoxicity, hepatocyte nuclear counts; assay type: cell-based; conditions: primary human hepatocytes
Text: as §1, §2, §3

hERG = conditions: in vitro; cited from earlier work
[4] = Pharmacokinetics in mice after oral or intravenous dosing; assay type: in vivo
Description: Plasma concentrations were measured by LC-MS/MS. Non-compartmental PK parameters were calculated using Phoenix WinNonlin. Human half-life predictions were derived by allometric scaling for half-life (t1/2): t1/2,human = t1/2,mouse × (Whuman/Wmouse)^0.25, where W = body weight. The exponent 0.25 is commonly used for time-based pharmacokinetic parameters. We assume an average mouse weight of 0.025 kg and an average human weight of 70 kg.

CIT = target: T1, CIT (Homo sapiens, UniProt O14578); assay: DiscoverX scanMAX competition binding at 1 µM; conditions: 1 μM compound
T1 construct: purchased Eurofins (DiscoverX)
Description: (§4) A major issue affecting the further development of RUPB-61 is its human-kinome selectivity. To identify its significant off-target liabilities, we quantified its binding affinity for 400 unique human kinases (S4 Fig). The screen consists of binding competitions between the test compound and control ligands for each of the target human kinases.
(§5) Off-target kinase inhibition was assessed using the DiscoverX scanMAX (Eurofins) panel at 1 µM compound concentration. Binding affinities of CIT, ROCK1 and ROCK2 were evaluated using the KdElect assay (Eurofins).

ROCK2 = target: T2, ROCK2 (Homo sapiens, UniProt O75116); assay: DiscoverX scanMAX competition binding at 1 µM; conditions: 1 μM compound
T2 construct: purchased Eurofins (DiscoverX)
Description: as §4, §5

ROCK1 = target: T3, ROCK1 (Homo sapiens, UniProt Q13464); assay: DiscoverX scanMAX competition binding at 1 µM; conditions: 1 μM compound
T3 construct: purchased Eurofins (DiscoverX)
Description: as §4, §5

[5] = system: P. falciparum CamWT and CamC580Y; conditions: ring-stage assays; cited from earlier work
[6] = system: P. berghei sporozoites infecting HepG2 cells; conditions: cited from earlier work
[7] = Intravenous, 10 mg/kg x1 (-0.5 hpi)
[8] = mouse, plasma, iv, 10 mg/kg, mice, IV 10 mg/kg, average of 3 mice
[9] = mouse, plasma, po, 10 mg/kg, mice, PO 10 mg/kg, average of 3 mice

T3 sequence (Q13464 whole entry): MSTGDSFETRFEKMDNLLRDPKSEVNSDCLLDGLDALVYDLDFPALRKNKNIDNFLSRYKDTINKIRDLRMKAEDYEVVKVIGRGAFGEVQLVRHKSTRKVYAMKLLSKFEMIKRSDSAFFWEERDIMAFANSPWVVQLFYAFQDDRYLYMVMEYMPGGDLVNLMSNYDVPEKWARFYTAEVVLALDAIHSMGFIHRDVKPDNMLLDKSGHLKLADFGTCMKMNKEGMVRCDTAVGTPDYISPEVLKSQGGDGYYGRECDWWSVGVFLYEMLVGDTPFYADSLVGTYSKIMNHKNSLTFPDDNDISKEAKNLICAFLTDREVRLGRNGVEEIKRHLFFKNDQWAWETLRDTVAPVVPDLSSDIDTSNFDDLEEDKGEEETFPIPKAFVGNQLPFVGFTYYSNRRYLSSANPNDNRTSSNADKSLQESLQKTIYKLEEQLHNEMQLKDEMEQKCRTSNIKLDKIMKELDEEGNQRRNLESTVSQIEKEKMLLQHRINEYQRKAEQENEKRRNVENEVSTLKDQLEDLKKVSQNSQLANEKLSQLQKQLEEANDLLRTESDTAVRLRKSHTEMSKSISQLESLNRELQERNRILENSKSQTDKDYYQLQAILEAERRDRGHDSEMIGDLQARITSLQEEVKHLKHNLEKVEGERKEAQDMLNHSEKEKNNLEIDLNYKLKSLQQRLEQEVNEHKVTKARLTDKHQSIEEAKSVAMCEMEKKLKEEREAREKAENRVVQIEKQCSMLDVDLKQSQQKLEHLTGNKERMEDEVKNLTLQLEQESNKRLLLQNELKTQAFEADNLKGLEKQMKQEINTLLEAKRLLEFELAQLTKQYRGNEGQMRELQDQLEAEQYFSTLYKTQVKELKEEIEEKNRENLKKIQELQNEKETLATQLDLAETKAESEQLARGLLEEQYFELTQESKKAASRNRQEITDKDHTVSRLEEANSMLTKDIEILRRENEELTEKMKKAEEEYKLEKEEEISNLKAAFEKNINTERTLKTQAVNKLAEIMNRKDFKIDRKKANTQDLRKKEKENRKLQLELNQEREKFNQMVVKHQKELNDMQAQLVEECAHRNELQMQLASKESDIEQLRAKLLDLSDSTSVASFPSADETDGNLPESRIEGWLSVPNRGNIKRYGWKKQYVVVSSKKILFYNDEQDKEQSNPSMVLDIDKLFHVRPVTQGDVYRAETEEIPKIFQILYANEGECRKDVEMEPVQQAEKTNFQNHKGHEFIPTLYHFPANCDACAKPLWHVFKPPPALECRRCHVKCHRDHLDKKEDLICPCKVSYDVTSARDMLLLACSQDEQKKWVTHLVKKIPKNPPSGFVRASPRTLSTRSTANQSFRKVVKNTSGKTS
T2 sequence (O75116 whole entry): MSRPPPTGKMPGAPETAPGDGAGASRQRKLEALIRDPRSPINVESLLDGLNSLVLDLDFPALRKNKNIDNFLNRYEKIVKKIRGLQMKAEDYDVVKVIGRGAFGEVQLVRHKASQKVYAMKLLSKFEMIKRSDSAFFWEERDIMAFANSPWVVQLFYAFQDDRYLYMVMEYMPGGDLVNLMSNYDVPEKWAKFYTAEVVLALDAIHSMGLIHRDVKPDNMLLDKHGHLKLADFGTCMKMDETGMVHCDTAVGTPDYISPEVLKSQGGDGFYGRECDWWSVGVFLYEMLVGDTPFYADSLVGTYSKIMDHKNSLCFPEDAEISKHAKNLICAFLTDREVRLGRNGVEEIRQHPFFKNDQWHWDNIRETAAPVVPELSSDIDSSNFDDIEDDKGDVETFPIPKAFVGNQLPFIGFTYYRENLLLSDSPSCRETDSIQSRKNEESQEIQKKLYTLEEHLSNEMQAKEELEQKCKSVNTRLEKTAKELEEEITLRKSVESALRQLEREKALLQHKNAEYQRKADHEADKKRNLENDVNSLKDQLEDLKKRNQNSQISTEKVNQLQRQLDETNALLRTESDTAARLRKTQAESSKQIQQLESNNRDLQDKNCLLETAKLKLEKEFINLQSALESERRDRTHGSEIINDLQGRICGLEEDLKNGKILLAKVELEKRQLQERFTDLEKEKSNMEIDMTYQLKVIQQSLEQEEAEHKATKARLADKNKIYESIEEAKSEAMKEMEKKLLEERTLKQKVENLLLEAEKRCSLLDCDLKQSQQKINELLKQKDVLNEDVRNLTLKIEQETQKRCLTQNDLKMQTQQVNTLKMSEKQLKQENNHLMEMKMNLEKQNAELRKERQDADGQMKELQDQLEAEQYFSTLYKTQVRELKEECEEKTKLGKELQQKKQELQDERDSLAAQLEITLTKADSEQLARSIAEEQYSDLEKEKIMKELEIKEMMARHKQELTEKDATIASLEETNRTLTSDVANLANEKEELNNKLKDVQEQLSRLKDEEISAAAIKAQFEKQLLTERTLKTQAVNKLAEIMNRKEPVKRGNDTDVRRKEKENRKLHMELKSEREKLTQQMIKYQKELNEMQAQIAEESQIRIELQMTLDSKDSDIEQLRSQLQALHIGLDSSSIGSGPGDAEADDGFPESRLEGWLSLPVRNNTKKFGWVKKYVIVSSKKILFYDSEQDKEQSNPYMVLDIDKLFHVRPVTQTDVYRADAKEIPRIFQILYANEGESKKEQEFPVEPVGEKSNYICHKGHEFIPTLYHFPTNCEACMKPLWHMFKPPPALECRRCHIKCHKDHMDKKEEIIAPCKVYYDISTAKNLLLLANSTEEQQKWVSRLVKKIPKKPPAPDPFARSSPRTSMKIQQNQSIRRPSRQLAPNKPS
T1 sequence (O14578 whole entry): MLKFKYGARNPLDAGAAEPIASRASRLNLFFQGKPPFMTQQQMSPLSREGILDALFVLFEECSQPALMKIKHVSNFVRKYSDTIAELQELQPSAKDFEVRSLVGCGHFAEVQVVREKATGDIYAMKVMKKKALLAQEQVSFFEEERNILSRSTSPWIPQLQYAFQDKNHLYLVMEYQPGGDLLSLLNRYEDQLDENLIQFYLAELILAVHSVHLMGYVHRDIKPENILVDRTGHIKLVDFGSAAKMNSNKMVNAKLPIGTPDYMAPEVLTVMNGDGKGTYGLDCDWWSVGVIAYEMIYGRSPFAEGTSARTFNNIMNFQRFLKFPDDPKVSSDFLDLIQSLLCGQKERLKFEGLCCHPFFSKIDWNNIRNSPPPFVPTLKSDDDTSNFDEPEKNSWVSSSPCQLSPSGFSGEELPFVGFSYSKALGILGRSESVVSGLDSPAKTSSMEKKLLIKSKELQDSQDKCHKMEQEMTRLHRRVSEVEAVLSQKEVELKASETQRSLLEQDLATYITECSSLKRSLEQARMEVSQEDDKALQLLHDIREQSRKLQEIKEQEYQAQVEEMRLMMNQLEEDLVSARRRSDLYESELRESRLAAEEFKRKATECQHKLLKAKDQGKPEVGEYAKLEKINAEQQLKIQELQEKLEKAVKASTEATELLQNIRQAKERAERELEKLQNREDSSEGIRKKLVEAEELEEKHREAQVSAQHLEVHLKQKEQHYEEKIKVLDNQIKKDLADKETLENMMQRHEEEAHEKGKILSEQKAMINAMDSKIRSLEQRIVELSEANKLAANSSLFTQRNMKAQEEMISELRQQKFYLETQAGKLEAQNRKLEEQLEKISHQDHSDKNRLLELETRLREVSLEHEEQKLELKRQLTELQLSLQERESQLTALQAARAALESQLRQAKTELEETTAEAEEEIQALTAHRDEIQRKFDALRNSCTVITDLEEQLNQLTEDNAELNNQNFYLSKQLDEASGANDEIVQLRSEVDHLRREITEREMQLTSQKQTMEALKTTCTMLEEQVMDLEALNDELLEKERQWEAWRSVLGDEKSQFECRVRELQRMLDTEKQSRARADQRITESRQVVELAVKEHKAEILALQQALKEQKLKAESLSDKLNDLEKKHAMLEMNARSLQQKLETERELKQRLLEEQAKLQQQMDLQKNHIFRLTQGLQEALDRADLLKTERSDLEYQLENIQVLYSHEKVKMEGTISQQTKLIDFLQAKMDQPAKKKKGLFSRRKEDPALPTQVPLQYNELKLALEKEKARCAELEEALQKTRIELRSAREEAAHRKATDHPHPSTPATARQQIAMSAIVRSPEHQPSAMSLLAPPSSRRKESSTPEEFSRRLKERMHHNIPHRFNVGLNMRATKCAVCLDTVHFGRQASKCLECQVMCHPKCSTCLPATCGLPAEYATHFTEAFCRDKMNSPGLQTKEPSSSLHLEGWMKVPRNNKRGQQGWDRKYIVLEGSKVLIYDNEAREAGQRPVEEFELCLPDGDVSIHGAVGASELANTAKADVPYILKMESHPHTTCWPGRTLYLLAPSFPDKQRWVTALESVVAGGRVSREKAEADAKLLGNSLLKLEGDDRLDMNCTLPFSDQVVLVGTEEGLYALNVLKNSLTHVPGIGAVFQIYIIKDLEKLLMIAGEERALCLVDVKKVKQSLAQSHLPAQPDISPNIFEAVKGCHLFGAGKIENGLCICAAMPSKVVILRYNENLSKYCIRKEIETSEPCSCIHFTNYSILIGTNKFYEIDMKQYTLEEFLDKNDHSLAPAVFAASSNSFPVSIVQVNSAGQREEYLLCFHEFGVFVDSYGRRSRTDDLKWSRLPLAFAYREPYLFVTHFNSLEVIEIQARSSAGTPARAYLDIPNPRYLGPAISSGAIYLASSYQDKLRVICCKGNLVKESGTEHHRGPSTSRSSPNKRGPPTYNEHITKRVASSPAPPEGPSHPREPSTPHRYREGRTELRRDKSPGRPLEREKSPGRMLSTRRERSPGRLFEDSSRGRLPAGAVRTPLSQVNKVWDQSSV

C[C@@H]1CN(C)CC[C@@H]1c1cc(-c2ccncc2)c(-c2ccc(F)cc2)[nH]1.Cl.Cl [RUPB-61, 4-{5-[(3S,4S)-1,3-Dimethylpiperidin-4-yl]-2-(4-fluorophenyl)-1H-pyrrol-3-yl}pyridine Dihydrochloride]
IC50 against PfPKG variants, RUPB-60 compared with RUPB-61 (PfPKG): similar
No. of mice patent by D21/ No. of mice inoculated [1, 7]: 0/5
Prepatent period mean ± sd [1, 7]: negative
No. of mice patent by D21/ No. of mice inoculated ([1]; Oral, 10 mg/kg x1 (-3 hpi)): 0/5
Prepatent period mean ± sd ([1]; Oral, 10 mg/kg x1 (-3 hpi)): negative
mice developing detectable blood stage infection in the 3-week monitoring period ([1]; single dose 10 mg/kg, PO (-3 hpi) and IV (-0.5 hpi), 10 mice): none
CC50 at 3 days [2]: > 20 µM
cytotoxicity against PHH [3]: no cytotoxicity
cardiovascular risk as judged by hERG inhibition (hERG): low preliminary cardiovascular risks
human half-life range by allometric scaling ([4]; exponent 0.25, mouse 0.025 kg, human 70 kg): 67.5 to 90 h
half-life in humans by allometric scaling ([4]; humans, scaled from mouse oral half-life): 48 to 96 h
plasma exposure maintained ([4]; mice, 10 mg/kg, for 24 h): > 100 nM
Vss obs ([4]; mice, IV 10 mg/kg, average of 3 mice, 10 mg/kg): 47.29 L/kg
Bioavailability ([4]; mice, PO vs IV 10 mg/kg, 10 mg/kg): 91 %F
AUC(0-t) [4, 8]: 7.43 µM·h
half-life [4, 8]: 11.8 h
AUC(0-inf) ([4]; mouse, plasma, iv, 10 mg/kg, mice, IV 10 mg/kg, average of 3 mice, read-out: AUC INF_obs): 9.8 µM·h
clearance ([4]; mouse, plasma, iv, 10 mg/kg, mice, IV 10 mg/kg, average of 3 mice, read-out: Cl_obs): 49.2 mL/min/kg
Vd ([4]; mouse, plasma, iv, 10 mg/kg, mice, IV 10 mg/kg, average of 3 mice, read-out: Vss obs): 47.3 L/kg
clearance ([4]; mouse, plasma, other: oral and intravenous, 10 mg/kg, mice, 10 mg/kg oral and intravenous, read-out: relative clearance): ~50 mL/min/kg
Cmax [4, 9]: 630 nM
Tmax [4, 9]: 4.17 h
AUC(0-inf) ([4]; mouse, plasma, po, 10 mg/kg, mice, PO 10 mg/kg, average of 3 mice, read-out: AUCINF_obs): 8.9 µM·h
displacement of control ligand for CIT (CIT): > 99%
displacement of control ligand for ROCK2 (ROCK2): > 99%
displacement of control ligand for ROCK1 (ROCK1): > 99%
IC50 against DHA-sensitive CamWT compared with DHA-resistant CamC580Y [5]: similar
activity against P. berghei sporozoites infecting HepG2 cells [6]: active
